Results: PubChem BioAssay AID248 (DTP/NCI, 2004)
Values joined by “and” are separate entries in the source; they are usually repeats but may differ in a detail not shown here. Identical values can stand only once. Toxic doses and inconclusive results are not listed. Rule as the data show it: active = T/C of 150% or more; inactive = T/C below 125%. Numbered stars: 1 amine (or outer) side, 2 acyl side, 3 side chain; on linkers, the order of the positions; unused ones are H or OH. Bridge positions count the residues as written; N and C are the ends. Square brackets hold non-standard residues; d marks the D form. Peptide text beside a SMILES is read from it. * marks the point of attachment. X3 = CC(C)C(C)C(C(=O)[*:2])N(C)[*:1]; Picolinoyl(3-OH) = O=C(c1ncccc1O)*; NMePhg = CN[CH](C(=O)O)c1ccccc1; Hyp = O=C(O)[CH]1C[CH](O)CN1; Sar = CNCC(=O)O

System: L1210 leukemia ip in BDF1 mice, survival T/C
Assay: NCI In Vivo Anticancer Drug Screen. Data for tumor model L1210 Leukemia (intraperitoneal) in B6D2F1 (BDF1) mice
Details: endpoint: mean survival time, higher = longer survival
Summary of the method: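 In this screen, tumor-bearing mice given compound are compared to those given vehicle, and their survival values are reported as a treated-to-control quotient.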

[1] = dose: 50.0 mg/kg/injection, schedule: Q01DX009 (ip), vehicle: saline with Tween-80
[2] = dose: 100.0 mg/kg/injection, schedule: Q01DX009 (ip), vehicle: saline with Tween-80
[3] = dose: 50.0 mg/kg/injection, schedule: Q04DX003 (ip), vehicle: Klucel (hydroxypropylcellulose) (HPC)
[4] = dose: 100.0 mg/kg/injection, schedule: Q04DX003 (ip), vehicle: Klucel (hydroxypropylcellulose) (HPC)
[5] = dose: 200.0 mg/kg/injection, schedule: Q04DX003 (ip), vehicle: Klucel (hydroxypropylcellulose) (HPC)
[6] = dose: 200.0 mg/kg/injection, schedule: Q01DX009 (ip), vehicle: Klucel (hydroxypropylcellulose) (HPC)

Measured: T/C

O=[N+]([O-])c1ccc2c(c1)OCCOCCOCCOCCO2
inactive: dose: 100.0 mg/kg/injection, schedule: Q04DX002 (ip), vehicle: Klucel (hydroxypropylcellulose) (HPC) 95 % of control | dose: 100.0 mg/kg/injection, schedule: Q04DX002 (ip), vehicle: saline with Tween-80 93 % of control | dose: 200.0 mg/kg/injection, schedule: Q04DX002 (ip), vehicle: Klucel (hydroxypropylcellulose) (HPC) 103 % of control | dose: 200.0 mg/kg/injection, schedule: Q04DX002 (ip), vehicle: saline with Tween-80 104 % of control | dose: 400.0 mg/kg/injection, schedule: Q04DX002 (ip), vehicle: saline with Tween-80 87 % of control

CCCCCCCC(N)=O
inactive: [1] 97 % of control | [2] 107 % of control and 90 % of control | dose: 100.0 mg/kg/injection, schedule: Q04DX003 (ip), vehicle: saline with Tween-80 100 % of control | dose: 200.0 mg/kg/injection, schedule: Q01DX009 (ip), vehicle: saline with Tween-80 97 % of control and 106 % of control | dose: 200.0 mg/kg/injection, schedule: Q04DX003 (ip), vehicle: saline with Tween-80 93 % of control | dose: 400.0 mg/kg/injection, schedule: Q01DX009 (ip), vehicle: saline with Tween-80 114 % of control | dose: 400.0 mg/kg/injection, schedule: Q04DX003 (ip), vehicle: saline with Tween-80 91 % of control

BrCc1cccc2cccc(CBr)c12
inactive: [3] 97 % of control | dose: 100.0 mg/kg/injection, schedule: Q01DX001 (ip), vehicle: Klucel (hydroxypropylcellulose) (HPC) 113 % of control | [4] 101 % of control | dose: 200.0 mg/kg/injection, schedule: Q01DX001 (ip), vehicle: Klucel (hydroxypropylcellulose) (HPC) 111 % of control | [5] 103 % of control

O=C(O)CCOc1ccccc1[N+](=O)[O-]
inactive: dose: 37.5 mg/kg/injection, schedule: Q01DX009 (ip), vehicle: saline with Tween-80 91 % of control | dose: 75.0 mg/kg/injection, schedule: Q01DX009 (ip), vehicle: saline with Tween-80 91 % of control | dose: 100.0 mg/kg/injection, schedule: Q01DX009 (ip), vehicle: Klucel (hydroxypropylcellulose) (HPC) 97 % of control | dose: 150.0 mg/kg/injection, schedule: Q01DX009 (ip), vehicle: saline with Tween-80 88 % of control | [6] 87 % of control | dose: 400.0 mg/kg/injection, schedule: Q01DX009 (ip), vehicle: Klucel (hydroxypropylcellulose) (HPC) 95 % of control

CCCCCCCCCCCCCCCC[N+]1(C)CCN(SN2CC[N+](C)(CCCCCCCCCCCCCCCC)CC2)CC1
inactive: dose: 25.0 mg/kg/injection, schedule: Q01DX009 (ip), vehicle: saline 98 % of control | dose: 50.0 mg/kg/injection, schedule: Q01DX009 (ip), vehicle: saline 105 % of control | dose: 100.0 mg/kg/injection, schedule: Q04DX003 (ip), vehicle: saline 86 % of control

CCCCn1cnc(=S)c2[nH]cnc21
inactive: [3] 98 % of control | [4] 114 % of control | dose: 133.0 mg/kg/injection, schedule: Q04DX003 (ip), vehicle: Klucel (hydroxypropylcellulose) (HPC) 118 % of control

CCCCSP(Cc1ccccc1)SCCCC
inactive: [4] 96 % of control | [5] 94 % of control

CC(C)CC1NC(=O)C(NC(=O)c2ncccc2O)C(C)OC(=O)C(c2ccccc2)N(C)C(=O)C(C)NC(=O)C(C(C)C(C)C)N(C)C(=O)CN(C)C(=O)C2CC(O)CN2C1=O (stereo unspecified) ({Picolinoyl(3-OH)}-TL[Hyp][Sar][X3]A[NMePhg]; ester 1-C; configuration not given here)
inactive: dose: 5.3 mg/kg/injection, schedule: Q01DX Z (ip), vehicle: saline 100 % of control | dose: 8.0 mg/kg/injection, schedule: Q01DX Z (ip), vehicle: saline 100 % of control | dose: 12.0 mg/kg/injection, schedule: Q01DX Z (ip), vehicle: saline 103 % of control | dose: 18.0 mg/kg/injection, schedule: Q01DX Z (ip), vehicle: saline 103 % of control and 109 % of control | dose: 36.0 mg/kg/injection, schedule: Q01DX Z (ip), vehicle: saline 97 % of control | dose: 72.0 mg/kg/injection, schedule: Q01DX Z (ip), vehicle: saline 103 % of control | dose: 144.0 mg/kg/injection, schedule: Q01DX Z (ip), vehicle: saline 106 % of control

Nc1nc(N)c2nc(CNc3ccc(S(=O)(=O)NC(CCC(=O)O)C(=O)O)cc3)cnc2n1 (stereo unspecified)
inactive: dose: 20.0 mg/kg/injection, schedule: Q01DX009 (ip), vehicle: Klucel (hydroxypropylcellulose) (HPC) 114 % of control | dose: 40.0 mg/kg/injection, schedule: Q01DX009 (ip), vehicle: Klucel (hydroxypropylcellulose) (HPC) 119 % of control | dose: 80.0 mg/kg/injection, schedule: Q01DX009 (ip), vehicle: Klucel (hydroxypropylcellulose) (HPC) 124 % of control | [6] 120 % of control

CCC1C2CC3C4N(C)c5ccccc5C45CC(C2C5O)N3C1O (stereo unspecified)
inactive: [1] 100 % of control | [2] 103 % of control

CC(CC(=O)O)C1Nc2ccccc2S(=O)(=O)C(c2ccccc2)C1=O (stereo unspecified)
inactive: [4] 95 % of control and 100 % of control | [5] 99 % of control
